Values of other authors as cited in US12115173B2 (Elba Laboratories, priority 2021, dated 2024).

pKa: about 3.8
SMILES: O=C(O)CO [glycolic acid]
